From patent US11291666B2, “Uses” (INTRA-CELLULAR THERAPIES, INC., priority 2016, dated 2022)

What was measured:
[1] = target: T1, bovine retina PDE6 (Bos taurus, UniProt P11541+P23439); assay: PDE selectivity, bovine retina PDE6; type: biochemical
T1 construct: bovine retina PDE6; from tissue; host or cells: bovine retina
T1 sequence (P11541 2-856 limits assumed): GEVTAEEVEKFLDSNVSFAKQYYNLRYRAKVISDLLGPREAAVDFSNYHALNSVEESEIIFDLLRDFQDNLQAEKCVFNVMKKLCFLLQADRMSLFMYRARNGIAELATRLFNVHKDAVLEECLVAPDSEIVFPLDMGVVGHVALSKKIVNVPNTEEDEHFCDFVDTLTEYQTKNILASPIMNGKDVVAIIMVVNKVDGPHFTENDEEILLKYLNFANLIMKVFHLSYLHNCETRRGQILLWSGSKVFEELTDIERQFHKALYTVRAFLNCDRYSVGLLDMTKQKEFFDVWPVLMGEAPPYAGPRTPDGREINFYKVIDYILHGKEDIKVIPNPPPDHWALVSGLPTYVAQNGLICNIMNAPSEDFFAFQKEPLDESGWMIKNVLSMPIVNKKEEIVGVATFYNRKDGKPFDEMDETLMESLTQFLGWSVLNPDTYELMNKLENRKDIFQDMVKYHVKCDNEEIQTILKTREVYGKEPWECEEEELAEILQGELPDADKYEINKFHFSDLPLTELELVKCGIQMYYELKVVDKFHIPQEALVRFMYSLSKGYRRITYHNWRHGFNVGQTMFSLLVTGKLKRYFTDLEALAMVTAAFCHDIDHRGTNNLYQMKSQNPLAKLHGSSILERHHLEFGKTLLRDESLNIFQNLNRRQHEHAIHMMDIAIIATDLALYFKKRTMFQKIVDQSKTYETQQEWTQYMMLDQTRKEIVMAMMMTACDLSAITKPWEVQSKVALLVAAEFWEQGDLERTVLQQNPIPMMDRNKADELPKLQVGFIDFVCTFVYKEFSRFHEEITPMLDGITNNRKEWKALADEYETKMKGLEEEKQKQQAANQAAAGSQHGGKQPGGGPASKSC
T1 sequence (P23439 2-850 limits assumed): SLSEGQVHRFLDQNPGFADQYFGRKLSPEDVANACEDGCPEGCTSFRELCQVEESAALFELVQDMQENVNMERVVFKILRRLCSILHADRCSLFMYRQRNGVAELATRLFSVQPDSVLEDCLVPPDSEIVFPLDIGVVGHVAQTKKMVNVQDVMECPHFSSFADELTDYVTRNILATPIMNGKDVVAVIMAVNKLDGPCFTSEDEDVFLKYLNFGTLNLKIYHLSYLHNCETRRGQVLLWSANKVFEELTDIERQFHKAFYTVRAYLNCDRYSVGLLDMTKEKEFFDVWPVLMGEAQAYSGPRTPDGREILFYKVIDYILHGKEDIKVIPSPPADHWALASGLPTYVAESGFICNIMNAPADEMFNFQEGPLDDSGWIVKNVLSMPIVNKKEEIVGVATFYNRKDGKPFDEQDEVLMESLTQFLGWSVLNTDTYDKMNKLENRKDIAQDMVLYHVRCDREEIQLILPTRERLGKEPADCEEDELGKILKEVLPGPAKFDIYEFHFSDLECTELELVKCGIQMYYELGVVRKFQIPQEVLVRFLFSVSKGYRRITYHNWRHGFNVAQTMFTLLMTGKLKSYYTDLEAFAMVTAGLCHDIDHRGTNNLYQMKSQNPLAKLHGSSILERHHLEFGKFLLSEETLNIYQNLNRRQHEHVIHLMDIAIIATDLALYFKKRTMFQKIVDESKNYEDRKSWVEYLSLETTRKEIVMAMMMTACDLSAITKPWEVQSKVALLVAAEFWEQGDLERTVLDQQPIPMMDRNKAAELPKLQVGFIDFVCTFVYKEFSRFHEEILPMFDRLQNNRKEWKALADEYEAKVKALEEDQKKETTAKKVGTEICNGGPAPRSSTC
Description: One unit of enzyme will hydrolyze […] of 3′,5′-cAMP to 5′-AMP per min at pH 7.5 at 30° C. […] 99 μl of diluted enzyme solution is added into each well in a flat bottom 96-well polystyrene plate to which 1 μι of test compound dissolved in 100% DMSO is added.

[2] = test system: C57Bl/6 mice; assay: Chronic unpredictable stress (CUS) model, inflammatory markers and depression-like behaviors; type: in vivo, mouse; conditions: 10 mg/kg i.p. daily
Text: This experiment compares the impact of chronic stress on the brain cytokine/chemokine profile in wild type mice vs PDE1B conditional knockout mice.
PDE1B conditional knockout mice are described in Siuciak J A, et al. “Behavioral and neurochemical characterization of mice deficient in the phosphodiesterase-1B (PDE1B) enzyme.” Neuropharmacology. 2007 July; 53(1):113-24. Protocols for CUS and other models of chronic stress are described in Monteiro, et al., “An Efficient Chronic Unpredictable Stress Protocol to Induce Stress-Related Responses in C57BL/6 Mice,” Front Psychiatry. 2015; 6: 6 and in Mann et al., “Chronic social defeat, but not restrain stress, alters bladder function in mice” Physiol. Behav. 2015; Oct. 15; 150: 83-92.
Generally, wild type (control) mice and PDE1B conditional knockout mice, as appropriate, are exposed to the chronic stress using restraint stress in shallow water model (RSSW) as described by Mann et al (2015), above. […] Control mice for these experiments are also maintained in single housing cages. In accordance the stress protocol, the mice are monitored for the depression-like behavior profile. Mice are then sacrificed and tissue samples are collected. […] Brain tissue and serum is analyzed for a panel of markers, including pro-inflammatory and anti-inflammatory cytokines and chemokines.
C57Bl/6 mice are subjected to the CUS protocol (14d, as described) or sham treatment, evaluated for depression-like behaviors at a specified time points, and sacrificed for collection of blood (serum preparation) and brain collection. Serum is analyzed for corticosterone (CORT) levels and other inflammatory markers. The brain is analyzed for a panel of inflammatory markers by qPCR (mRNA) and MSD (protein).
Mice are evaluated for depression-like behaviors at a specified time point to test the impact of the CUS protocol and of the PDE1 inhibitor treatment on the depression-like phenotype. […] Serum is analyzed for CORT levels and other inflammatory markers. Brain samples are analyzed for a panel for a panel of inflammatory markers by qPCR (mRNA) and MSD (protein). […]

IC50 [1]: 324 nM
SMILES: CN1C(=O)c2c(nn(Cc3ccc(-c4cccc(F)n4)cc3)c2Nc2ccccc2)N2C1=N[C@@H]1CCC[C@@H]12 [Compound 214]
effect on tissue and serum markers and behaviors in PDE1B KO mice ([2]; PDE1B KO mice, CUS): no significant effect
CUS-induced CNS and serum markers (proinflammatory) ([2]; normal C57Bl/6 mice, CUS 14d): significantly suppresses
expression of depression-like behaviors ([2]; normal C57Bl/6 mice, CUS 14d): significantly suppresses
